Measurements taken from US20250228239A1, “MOLECULES HAVING PESTICIDAL UTILITY, AND INTERMEDIATES, COMPOSITIONS, AND PROCESSES, RELATED THERETO” (priority 2024, published 2025).

How the values were obtained:
[1] = tested on: Beet Armyworm (Spodoptera exigua, LAPHEG); assay: Bioassays on Beet Armyworm (BAW), 128-well diet tray assay; type: in vivo; conditions: Spodoptera exigua; Beet Armyworm; rating class; read-out: BAW
Summary of the method: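 Percent larval mortality, averaged across eight wells, scored after five to seven days at 25° C. under 14:10 light-dark. Each well held one to five second instars feeding on diet dosed at 50 μg/cm^2 with compound from 90:10 acetone-water, solvent dried off.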

[2] = tested on: Cabbage Looper (Trichoplusia ni, TRIPNI); assay: Bioassays on Cabbage Looper (CL), 128-well diet tray assay; type: in vivo; conditions: Trichoplusia ni; Cabbage Looper; rating class; read-out: CL
Summary of the method: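 One to five second-instar larvae per well on artificial diet surface-treated with 50 μg/cm^2 test molecule (applied in 90:10 acetone-water, dried). Held 5–7 days at 25° C, 14:10 light-dark; percent mortality recorded per well and averaged over eight wells.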

Row | Compound | pest or weed control at 50 µg/cm2 [1] | pest or weed control at 50 µg/cm2 [2]
1 | CC(=O)Nc1ccc(F)c(NC(=O)c2cc(NC(=O)[C@H]3[C@H](c4ccc(Cl)c(Cl)c4)C3(Cl)Cl)ccc2F)c1F [F1514, N-(3-Acetamido-2,6-difluorophenyl)-5-((1R,3R)-2,2-dichloro-3-(3,4-dichlorophenyl)cyclopropane-1-carboxamido)-2-fluorobenzamide] | 50 to 100% | 50 to 100%
2 | CC(=O)Nc1ccc(F)c(NC(=O)c2cc(NC(=O)[C@H]3[C@H](c4cc(Cl)c(Cl)c(Cl)c4)C3(Cl)Cl)ccc2Cl)c1F [F1515, N-(3-Acetamido-2,6-difluorophenyl)-2-chloro-5-((1R,3R)-2,2-dichloro-3-(3,4,5-trichlorophenyl)cyclopropane-1-carboxamido)benzamide] | 50 to 100% | 50 to 100%
3 | O=C(Nc1c(F)ccc(NC(=O)C(F)(F)F)c1F)c1cc(NC(=O)[C@H]2[C@H](c3cc(Cl)c(Cl)c(Cl)c3)C2(Cl)Cl)ccc1Cl [F1516, 2-Chloro-5-((1R,3R)-2,2-dichloro-3-(3,4,5-trichlorophenyl)cyclopropane-1-carboxamido)-N-(2,6-difluoro-3-(2,2,2-trifluoroacetamido)phenyl)benzamide] | 50 to 100% | 50 to 100%
4 | CC(=O)Nc1cc(NC(=O)c2cc(NC(=O)[C@H]3[C@H](c4cc(Cl)c(Cl)c(Cl)c4)C3(Cl)Cl)ccc2Cl)c(F)cc1F [F1517, N-(5-Acetamido-2,4-difluorophenyl)-2-chloro-5-((1R,3R)-2,2-dichloro-3-(3,4,5-trichlorophenyl)cyclopropane-1-carboxamido)benzamide] | 50 to 100% | 50 to 100%
5 | O=C(Nc1cc(NC(=O)C(F)F)c(F)cc1F)c1cc(NC(=O)[C@H]2[C@H](c3cc(Cl)c(Cl)c(Cl)c3)C2(Cl)Cl)ccc1Cl [F1518, 2-Chloro-5-((1R,3R)-2,2-dichloro-3-(3,4,5-trichlorophenyl)cyclopropane-1-carboxamido)-N-(5-(2,2-difluoroacetamido)-2,4-difluorophenyl)benzamide] | 50 to 100% | 50 to 100%
6 | O=C(Nc1cc(NC(=O)C(F)(F)F)c(F)cc1F)c1cc(NC(=O)[C@H]2[C@H](c3cc(Cl)c(Cl)c(Cl)c3)C2(Cl)Cl)ccc1Cl [F1519, 2-Chloro-5-((1R,3R)-2,2-dichloro-3-(3,4,5-trichlorophenyl)cyclopropane-1-carboxamido)-N-(2,4-difluoro-5-(2,2,2-trifluoroacetamido)phenyl)benzamide] | 50 to 100% | 50 to 100%
7 | CC(=O)Nc1ccc(F)c(NC(=O)c2cc(NC(=O)[C@H]3[C@H](c4cc(Cl)c(Cl)c(Cl)c4)C3(Cl)Cl)cc(F)c2Cl)c1F [F1520, N-(3-Acetamido-2,6-difluorophenyl)-2-chloro-5-((1R,3R)-2,2-dichloro-3-(3,4,5-trichlorophenyl)cyclopropane-1-carboxamido)-3-fluorobenzamide] | 50 to 100% | 50 to 100%
8 | CC(=O)Nc1ccc(F)c(NC(=O)c2cc(NC(=O)[C@H]3[C@H](c4ccc(Cl)c(Cl)c4)C3(Cl)Cl)cc(F)c2Cl)c1F [F1522, N-(3-Acetamido-2,6-difluorophenyl)-2-chloro-5-((1R,3R)-2,2-dichloro-3-(3,4-dichlorophenyl)cyclopropane-1-carboxamido)-3-fluorobenzamide] | 50 to 100% | 50 to 100%
9 | CC(=O)Nc1ccc(F)c(NC(=O)c2cc(NC(=O)[C@H]3[C@H](c4ccc(Cl)c(Cl)c4)C3(Cl)Cl)cc(C)c2Cl)c1F [F1523, N-(3-Acetamido-2,6-difluorophenyl)-2-chloro-5-((1R,3R)-2,2-dichloro-3-(3,4-dichlorophenyl)cyclopropane-1-carboxamido)-3-methylbenzamide] | 50 to 100% | 50 to 100%
10 | CC(=O)Nc1ccc(F)c(NC(=O)c2cc(NC(=O)[C@H]3[C@H](c4cc(Cl)c(Cl)c(Cl)c4)C3(Cl)Cl)cc(C)c2Cl)c1F [F1524, N-(3-Acetamido-2,6-difluorophenyl)-2-chloro-5-((1R,3R)-2,2-dichloro-3-(3,4,5-trichlorophenyl)cyclopropane-1-carboxamido)-3-methylbenzamide] | 50 to 100% | 50 to 100%
11 | CC(=O)Nc1ccc(F)c(NC(=O)c2cc(NC(=O)[C@H]3[C@H](c4ccc(F)c(C(F)(F)F)c4)C3(Cl)Cl)cc(C)c2Cl)c1F [F1525, N-(3-Acetamido-2,6-difluorophenyl)-2-chloro-5-((1R,3R)-2,2-dichloro-3-(4-fluoro-3-(trifluoromethyl)phenyl)cyclopropane-1-carboxamido)-3-methylbenzamide] | 50 to 100% | 50 to 100%
12 | O=C(Nc1ccc(F)c(NC(=O)C(F)F)c1F)c1cc(NC(=O)[C@H]2[C@H](c3cc(Cl)c(Cl)c(Cl)c3)C2(Cl)Cl)ccc1F [F1527, 5-((1R,3R)-2,2-Dichloro-3-(3,4,5-trichlorophenyl)cyclopropane-1-carboxamido)-N-(3-(2,2-difluoroacetamido)-2,4-difluorophenyl)-2-fluorobenzamide] | 50 to 100% | 50 to 100%
13 | CC(=O)Nc1c(F)ccc(NC(=O)c2cc(NC(=O)[C@H]3[C@H](c4cc(Cl)c(Cl)c(Cl)c4)C3(Cl)Cl)ccc2Cl)c1F [F1532, N-(3-Acetamido-2,4-difluorophenyl)-2-chloro-5-((1R,3R)-2,2-dichloro-3-(3,4,5-trichlorophenyl)cyclopropane-1-carboxamido)benzamide] | 50 to 100% | 50 to 100%
14 | O=C(Nc1ccc(F)c(NC(=O)C(F)(F)F)c1F)c1cc(NC(=O)[C@H]2[C@H](c3cc(Cl)c(Cl)c(Cl)c3)C2(Cl)Cl)ccc1Cl [F1533, 2-Chloro-5-((1R,3R)-2,2-dichloro-3-(3,4,5-trichlorophenyl)cyclopropane-1-carboxamido)-N-(2,4-difluoro-3-(2,2,2-trifluoroacetamido)phenyl)benzamide] | 50 to 100% | 50 to 100%
15 | O=C(Nc1c(F)ccc(NC(=O)C(F)(F)C(F)F)c1F)c1cc(NC(=O)[C@H]2[C@H](c3cc(Cl)c(Cl)c(Cl)c3)C2(Cl)Cl)ccc1Cl [F1534, 2-Chloro-5-((1R,3R)-2,2-dichloro-3-(3,4,5-trichlorophenyl)cyclopropane-1-carboxamido)-N-(2,6-difluoro-3-(2,2,3,3-tetrafluoropropanamido)phenyl)benzamide] | 50 to 100% | 50 to 100%
16 | O=C(Nc1c(F)ccc(NC(=O)C(F)(F)C(F)F)c1F)c1cc(NC(=O)[C@H]2[C@H](c3ccc(Cl)c(Cl)c3)C2(Cl)Cl)ccc1Cl [F1535, 2-Chloro-5-((1R,3R)-2,2-dichloro-3-(3,4-dichlorophenyl)cyclopropane-1-carboxamido)-N-(2,6-difluoro-3-(2,2,3,3-tetrafluoropropanamido)phenyl)benzamide] | 50 to 100% | 50 to 100%
17 | CC(=O)Nc1ccc(F)c(NC(=O)c2cc(NC(=O)[C@H]3[C@H](c4ccc(Cl)c(Cl)c4)C3(Cl)Cl)ccc2Cl)c1F [F1536, N-(3-Acetamido-2,6-difluorophenyl)-2-chloro-5-((1R,3R)-2,2-dichloro-3-(3,4-dichlorophenyl)cyclopropane-1-carboxamido)benzamide] | 50 to 100% | 50 to 100%
